Source: patent publication EP0935963A2, “The use of MMP-13 selective inhibitors for the treatment of osteoarthritis and other matrix metalloproteinase-mediated disorders” (Pfizer Products Inc., priority 1997, dated 1999)
Read-outs that look alike come from different tables or passages of the source.

How the values were obtained:
[1] = test system: cartilage conditioned medium collagenase activity; assay: Collagen film assay with cartilage conditioned medium as enzyme source; type: biochemical
Method: (§1) Rat type I collagen is radiolabeled with ^14C acetic anhydride (T.E. Cawston and A.J. Barrett, Anal. Biochem., 99, 340-345 (1979)) and used to prepare 96 well plates containing radiolabeled collagen films (Barbara Johnson-Wint, Anal. Biochem., 104, 175-181 (1980)). When a solution containing collagenase is added to the well, the enzyme cleaves the insoluble collagen which unwinds and is thus solubilized. Collagenase activity is directly proportional to the amount of collagen solubilized, determined by the proportion of radioactivity released into the supernatant as measured in a standard scintillation counter. Collagenase inhibitors are, therefore, compounds which reduce the radioactive counts released with respect to the controls with no inhibitor present. One specific embodiment of this assay is described in detail below.
(§2) Stock solutions of test compound (10mM) in dimethylsulfoxide are prepared. Dilutions of the test compounds in the Tris buffer, above, are made to 0.2, 2.0, 20, 200, 2000 and 20000 nM.
(§3) 100 µl of appropriate drug dilution and 100 µl of diluted enzyme are pipetted into wells of a 96 well plate containing collagen films labeled with ^14C-collagen. The final enzyme concentration is 0.3 µg/ml while the final drug concentration is 0.1, 1.0, 10, 100, 1000 nM. Each drug concentration and control is analyzed in triplicate. Triplicate controls are also run for the conditions in which no enzyme is present and for enzyme in the absence of any compound.
(§4) The plates are incubated at 37°C for a time period such that around 30 - 50% of the available collagen is solubilized - determined by counting additional control wells at various time points. In most cases around 9 hours of incubation are required. When the assay has progressed sufficiently, the supernatant from each well is removed and counted in a scintillation counter. The background counts (determined by the counts in the wells with no enzyme) are subtracted from each sample and the % release calculated in relation to the wells with enzyme only and no inhibitor. The triplicate values for each point are averaged and the data graphed as percent release versus drug concentration. IC50's are determined from the point at which 50% inhibition of release of radiolabeled collagen is obtained.
To determine the identity of the active collagenases in cartilage conditioned medium, assays were carried out using collagen as a substrate, cartilage conditioned medium containing collagenase activity and inhibtors of varying selectivity. The cartilage conditioned medium was collected during the time at which collagen degradation was occurring and thus is representative of the collagenases responsible for the collagen breakdown. Assays were carried out as outlined above except that instead of using recombinant MMP-13 or recombinant MMP-1, cartilage conditioned medium was the enzyme source. […]

[2] = molecular target: T1, Human recombinant collagenase-1 (Homo sapiens, UniProt P03956); assay: Inhibition of Human Collagenase (MMP-1), fluorescence assay; type: biochemical
T1 sequence (P03956 100-469): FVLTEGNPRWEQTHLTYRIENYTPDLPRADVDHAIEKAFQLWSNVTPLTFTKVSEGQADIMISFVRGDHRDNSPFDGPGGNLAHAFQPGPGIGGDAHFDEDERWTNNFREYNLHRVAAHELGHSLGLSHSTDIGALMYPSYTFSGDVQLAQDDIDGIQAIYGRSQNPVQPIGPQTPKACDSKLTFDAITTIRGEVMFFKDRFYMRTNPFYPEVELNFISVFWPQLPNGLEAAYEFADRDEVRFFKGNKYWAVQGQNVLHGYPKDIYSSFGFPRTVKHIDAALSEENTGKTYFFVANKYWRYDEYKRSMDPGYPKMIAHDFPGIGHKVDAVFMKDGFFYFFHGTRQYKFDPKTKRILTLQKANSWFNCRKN
Method: Human recombinant collagenase-1 is activated with trypsin.
The final concentration of inhibitor will be a 1:4 dilution after addition of enzyme and substrate.
Final concentration of collagenase in the assay is 60 ng/ml.
Fluorescence versus time is then plotted for both the blank and collagenase containing samples (data from triplicate determinations is averaged). […] The zero time is used as a blank for each compound at each concentration and these values are subtracted from the 120 minute data.

MMP-1 = molecular target: T2, MMP-1 (Homo sapiens, UniProt P03956); assay: biochemical
T2 sequence (P03956 100-469): T1 sequence (P03956 100-469)
Method: as §1, with “Collagenase activity is directly proportional to the amount of collagen solubilized, determined by the proportion of radioactivity released into the supernatant as measured in a standard scintillation counter.” left out
(§5) For determining the selectivity of compounds for MMP-13 versus MMP-1 using collagen as a substrate, the following procedure is used. Recombinant human proMMP-13 or proMMP-1 is activated according to the procedures outlined in Experiment 1. The activated MMP-13 or MMP-1 is diluted to 0.6 ug/ml with buffer ( 50 mM Tris pH 7.5, 150 mM NaCI, 10 mM CaCl2, 1 uM ZnCl2, 0.05% Brij-35, 0.02% sodium azide).
as §2, §3, §4

MMP-13 [3] = molecular target: T3, MMP-13 (Homo sapiens, UniProt P45452); assay: biochemical
Method: as §1, with “Collagenase activity is directly proportional to the amount of collagen solubilized, determined by the proportion of radioactivity released into the supernatant as measured in a standard scintillation counter.” left out
as §5, §2, §3, §4

[4] = test system: bovine nasal cartilage explants; assay: IL-1 Induced Cartilage Collagen Degradation From Bovine Nasal Cartilage (cartilage explant assay); type: cell-based; conditions: Bos taurus
Text: This assay uses bovine nasal cartilage explants which are commonly used to test the efficacy of various compounds to inhibit either IL-1 induced proteoglycan degradation or IL-1 induced collagen degradation. Bovine nasal cartilage is a tissue that is very similar to articular cartilage, i.e. chondrocytes surrounded by a matrix that is primarily type II collagen and aggrecan. The tissue is used because it: (1) is very similar to articular cartilage, (2) is readily available, (3) is relatively homogeneous, and (4) degrades with predictable kinetics after IL-1 stimulation.
Two variations of this assay have been used to assay compounds. Both variations give similar data. The two variations are described below:
Three plugs of bovine nasal cartilage (approximately 2 mm diameter x 1.5 mm long) are placed into each well of a 24 well tissue culture plate. One ml of serumless medium is then added to each well. Compounds are prepared as 10 mM stock solutions in DMSO and then diluted appropriately in serumless medium to final concentrations, e.g., 50, 500 and 5000 nM. Each concentration is assayed in triplicate.
Human recombinant IL-1α (5ng/mL) (IL-1) is added to triplicate control wells and to each well containing drug. Triplicate control wells are also set up in which neither drug nor IL-1 are added. The medium is removed and fresh medium containing IL-1 and the appropriate drug concentrations is added on days 6, 12, 18 and 24 or every 3 - 4 days if necessary. The media removed at each time point is stored at -20°C for later analysis. When the cartilage in the IL-1 alone wells has almost completely resorbed (about day 21), the experiment is terminated. The medium, is removed and stored. Aliquots (100 ul) from each well at each time point are pooled, digested with papain and then analyzed for hydroxyproline content. Background hydroxyproline (average of wells with no IL-1 and no drug) is subtracted from each data point and the average calculated for each triplicate. The data is then expressed as a percent of the IL-1 alone average value and plotted. The IC50 is determined from this plot.
The experimental set-up is the same as outlined above in Variation 1, until day 12. On day 12, the conditioned medium from each well is removed and frozen. Then one ml of phosphate buffered saline (PBS) containing 0.5 µg/ml trypsin is added to each well and incubation continued for a further 48 hours at 37°C. After 48 hours incubation in trypsin, the PBS solution is removed. Aliquots (50 µl) of the PBS/trypsin solution and the previous two time points (days 6 and 12) are pooled. hydrolyzed and hydroxyproline content determined. Background hydroxyproline (average of wells with no IL-1 and no drug) is subtracted from each data point and the average calculated for each triplicate. The data is then expressed as a percent of the IL-1 alone average value and plotted. The IC50 is determined from this plot. In this variation, the time course of the experiment is shortened considerably. The addition of trypsin for 48 hours after 12 days of IL-1 stimulation likely releases any type II collagen that has been damaged by collagenase activity but not yet released from the cartilage matrix. In the absence of IL-1 stimulation, trypsin treatment produces only low background levels of collagen degradation in the cartilage explants.

MMP-13 [5] = molecular target: T3, MMP-13; assay: Inhibition of MMP-13, fluorescence assay; type: biochemical
Method: Human recombinant MMP-13 is activated with 2 mM APMA (p-aminophenyl mercuric acetate) for 1.5 hours, at 37°C and is then diluted to […] in assay buffer (50 mM Tris, pH 7.5, 200 mM sodium chloride, 5mM calcium chloride, 20µM zinc chloride, 0.02% Brij 35). Twenty-five microliters of diluted enzyme is added per well of a 96 well microfluor plate. The enzyme is then diluted in a 1:4 ratio in the assay by the addition of inhibitor and substrate to give a final concentration in the assay of 60 ng/ml.
Stock solutions (10 mM) of inhibitors are made up in dimethylsulfoxide and then diluted in assay buffer as per the inhibitor dilution scheme for inhibition of human collagenase-1. Twenty-five microliters of each concentration is added to triplicate wells of a microfluor plate. The final concentrations in the assay are 30 µM, 3 µM, 0.3 µM, and 0.03 µM.
Substrate (Dnp-Pro-Cha-Gly-Cys(Me)-His-Ala-Lys(NMA)-NH2) is prepared as for inhibition of human collagenase (MMP-1) and […] is added to each well to give a final assay concentration of 10 µM. Fluorescence readings (360 nm excitation; 450 nm emission) are taken at time 0 and every 5 minutes for 1 hour.
Positive controls and negative controls are set up in triplicate as outlined in the MMP-1 assay.
IC50's are determined as per inhibition of human collagenase (MMP-1). If IC50's are reported to be less than […], inhibitors are then assayed at final concentrations of 0.3 µM, 0.03 µM, 0.003 µM and 0.0003 µM.

[6] = clinical trial data, Proceedings of ASCO, 15, 490 (1996); cited from earlier work
[7] = Table 2, collagen film substrate
[8] = Table 3 (repeated for comparison)
[9] = 504 h, Variation 1: IL-1 stimulation until about day 21, hydroxyproline content, read-out: Cartilage Explant Assay IC50 Variation 1
[10] = read-out: Average IC50 (variation 1 and 2), average of variation 1 and 2
[11] = Variation 2: 12 days IL-1, then trypsin 48 hours, hydroxyproline content, read-out: Cartilage Explant Assay IC50 Variation 2

Row | Compound | inhibition of the cartilage conditioned medium collagenase activity (in words) [1] | IC50 [1, 7] [nM] | IC50 [1, 8] [nM] | IC50 ([2]; fluorescent peptide substrate, read-out: MMP-1 Fluor. IC50) [nM] | IC50 (MMP-1; Table 2, type I collagen film substrate, read-out: MMP-1 Type I Collagen IC50) [nM] | IC50 (MMP-13 [3]; Table 2, type I collagen film substrate, read-out: MMP-13 Type 1 Collagen IC50) [nM] | IC50 [4, 9] [nM] | IC50 [4, 10] [nM] | IC50 [4, 11] [nM] | IC50 (MMP-13 [5]; fluorescent peptide substrate, read-out: MMP-13 Fluor. IC50) [nM] | connective tissue side effects [6] | IC50 (MMP-13 [3]) [nM] | IC50 (MMP-13 [5]) [nM] | IC50 [2] [nM] | IC50 (MMP-1) [nM]
1 | O=C(CN(Cc1cccnc1)S(=O)(=O)c1ccc(OCc2ccccc2)cc1)NO [Example 2] | potent inhibitors | 220 | 220 | 17700 | 22000 | 52 | 900 | 725 | 550 | 5.4 |  |  |  |  | 
2 | CNC(=O)[C@@H](NC(=O)[C@H](CC(C)C)[C@H](O)C(=O)NO)C(C)(C)C [marimastat] |  |  |  |  |  |  |  |  |  |  | significant dose-related connective tissue side effects |  |  |  | 
3 | CNC(=O)[C@H](Cc1ccc(OC)cc1)NC(=O)C(CC(=O)NO)CC(C)C (stereo partly drawn) [Example 1, reference compound] | potent inhibitor | 10 | 10 |  |  |  | 60 | 90 | 50 |  |  | 1.5 | 1.5 |  | 
4 | CNC(=O)C(Cc1ccc(OC)cc1)NC(=O)C(CCCCOc1ccccc1)CP(=O)(O)Cc1ccc(Cc2ccccc2)cc1 (stereo not drawn) [Example 3] | potent inhibitors | 400 | 400 |  |  |  |  |  | 830 |  |  | 40 | 70 | 21700 | 40000
